The test system of data set [1] is MC-38 cells. The data set can be described thus: Migration assay, intracellular LGG. Type of data set: cell-based, C57BL/6 murine. The procedure:
Cells. C57BL/6 murine colon adenocarcinoma MC-38 cells (gender unknown; Kerafast, Inc., Boston, Massachusetts, United States of America) or human epithelial colorectal adenocarcinoma Caco-2 cells (American Type Culture Collection, ATCC®, Manassas, Virginia, United States of America) were grown in tissue culture plates with Dulbecco's modified Eagle's medium (DMEM) supplemented with 10% heat-inactivated fetal bovine serum (FBS), 100 U/mL penicillin, and 100 μg/mL streptomycin at 37° C. in a 5% CO2 atmosphere.
Migration Assays. MC-38 or Caco-2 cells (ATCC) were seeded at 1×10^5 cells per well in a 12-well tissue culture plate with Dulbecco's modified Eagle's medium (DMEM) without antibiotics. The cells were inoculated with 1×10^7 bacteria per well for 90 minutes at 37° C. in a 5% CO2 atmosphere to allow bacterial adhesion and entry. The number of intracellular bacteria was quantified as described in Zhang & Wang, 1998.

For data set [2], the system named is IL-22, IL-1β, TNFα. Description: ELISA of IL-22, IL-1β and TNFα in colon mucus. Type of data set: in vivo, mice. As to the method:
(§1) Enzyme-Linked Immunosorbent Assay (ELISA). The cytokine IL-22, IL-1β, and TNFα levels in cell culture supernatants or mouse colon mucus were quantified using ELISA kits (eBioscience) according to the manufacturer's instructions. Briefly, a microtiter plate was coated with anti-mouse IL-22, IL-1β and TNFα antibody at 1:200 overnight at 4° C. Excess binding sites were blocked with 200 μl of 1×ELISA/ELISPoT Diluent (eBioscience, San Diego, California, United States of America) for 1 hour at 22° C. After washing three times with PBS containing 0.05% Tween 20, the plate was incubated with detection antibody in blocking buffer for 1 hour at 22° C. After three washes, avidin conjugated with horseradish peroxidase and substrate were each added sequentially for 1 hour and 30 min at 22° C. An analysis of absorbance at 405 nm using a microtiter plate reader (BioTek Synergy HT, BioTek Instruments, Inc., Winooski, Vermont, United States of America) followed.
(In general: An ELISA detects its analyte on a solid surface through an enzyme-linked reagent.)

Data set [3] has as its system LGG. The data set can be described thus: HPLC analysis of tryptophan metabolites in LGG MRS broth. Type of data set: cell-based, Lactobacillus rhamnosus. The procedure:
HPLC Analysis of Tryptophan Metabolites. The fecal samples and LGG MRS broth were diluted with an equal volume of methanol. After centrifugation at 10,000×g for 30 minutes, 50 μl of supernatant was injected for high-performance liquid chromatography (HPLC) analysis. The HPLC analysis was performed on an Agilent 1260 Infinity system equipped with an Agilent ZORBAX SB-C18 column (4.6×150 mm, 3.5 μm), with following parameters: mobile phase A: 5 mM NH4Ac in water modified with 0.1% formic acid (v/v); mobile phase B: 5 mM NH4Ac in 90% acetonitrile modified with 0.1% formic acid (v/v); gradient: 5% B in first 5 min, 5-20% B for 10 min, hold 20% B for 5 min, 20%-50% B for 5 min, hold 50% B for 5 min, 50%-100% B for 5 min, hold 100% B for 10 min, 100-5% B for 5 min; flow rate: 1.0 ml/min; temperature: 30° C. UV detection at 300 nm was used to monitor indole-3-carboxaldehyde (I3A) and indole-3-acetaldehyde (IAAld); FLD (ex=280 nm; em=350 nm) was used for detection of tryptophan and indole-3-acetamide (I3AM). The standard for I3A (Catalog No. 129445-5g), I3AM (Catalog No. 286281-1G), IAAld (Catalog No. I1000-25MG), and tryptophan (Catalog No. T0254-25g) were purchased from Sigma.

The test system of data set [4] is monooxygenase ycnE. The data set can be described thus: ycnE expression in LGG (qPCR, mRNA sequencing, LC-MS/MS). Type of data set: cell-based, Lactobacillus rhamnosus. The procedure:
Quantitative Real-Time PCR for RNA Expression. The quantity of mature miRNAs was determined with quantitative real-time PCR (qPCR) using a miScript II RT kit (QIAGEN Inc., Germantown, Maryland, United States of America) and miScript SYBR Green PCR Kit (QIAGEN) with QIAGEN 3′ universal primers. For analysis of gene mRNA expression, 1 μg of total RNA was reverse transcribed using SuperScript III reverse transcriptase (Invitrogen, Waltham, Massachusetts, United States of America), and quantitation was performed using SsoAdvanced™ Universal SYBR Green Supermix (Bio-Rad Laboratories, Inc., Hercules, California, United States of America) and the listed primers (Table 1) with SsoAdvanced™ Universal SYBR Green Supermix (Bio-Rad). qPCR was performed using a Bio-Rad CFX96 qPCR System with each reaction run in triplicate. Analysis and fold-changes were determined using the comparative threshold cycle (Ct) method. Changes in miRNA or mRNA expression were calculated as fold-change. […]
LGG mRNA Sequencing. […] Following quantitation with Qubit dsDNA HS Reagent (Catalog No., Q32854; Thermo Scientific,), 10 ng of dscDNA/sample was fragmented with an E220 Focused-ultrasonicator (Covaris, Matthews, North Carolina, United States of America). […] Libraries were then combined into equimolar pools, which were then measured for size and concentration. […] The first and second reads were each 83 bases.
A general note: In qPCR the cycle at which signal appears reflects the starting amount.

Data set [5] deals with colon lymphocytes. Description: ELISA of IL-22 in supernatants of isolated colon lymphocytes. Type of data set: cell-based, mice. The procedure:
as §1, with “1×[…]” for “1×ELISA/ELISPoT”, “[…] Isolation” for “An analysis”, “Lymphoid Cells in the Colon. Intestinal lymphoid cells were isolated from the intestine by incubation in PBS supplemented with 1 mM EDTA, 15 mM HEPES and 10% FCS for 30 minutes” for “absorbance”, “37° C. Supernatants were discarded, and tissues were then incubated in RPMI supplemented with 15 mM HEPES and 300 units/mL collagenase type VIII (Sigma) for 30 minutes with gentle shaking. Lysates were gently pressed through nylon cell strainers (70 μm in diameter; […] Lymphocytes were recovered from the interface and washed twice.” for “405 nm using a microtiter plate reader (BioTek Synergy HT, BioTek Instruments, Inc., Winooski, Vermont, United States of America) followed.”

In the case of “ath-miR827: GELN-derived miRNA, SEQ ID NO: 81 (UUAGAUGACCAUCAACAAACU; expressed or natural sequence)”, the “LGG entry into MC38 cells” value in data set [1] is reported as “could prevent the entry of LGG into gut epithelial cells”.

For `NC(=O)Cc1c[nH]c2ccccc12` [I3AM, indole-3-acetamide], the “inhibitory effect on IL-22 production in AHR KO mice” value in data set [2] (AHR KO mice treated with LGG supernatant exposed to I3AM) is reported as “did not occur”. For the same compound, in data set [3] (MRS media, different concentrations of I3AM), the “production of IAAld and I3A by LGG” value was “inhibited the production of IAAld and I3A in a dose-dependent manner”. Also, the “GELN-RNA-mediated induction of the I3A precursor IAAld in LGG cultures” value in data set [3] (addition of I3AM to LGG cultures) is “significantly inhibited”.

In the case of “ath-miR842: GELN-derived miRNA, SEQ ID NO: 82 (UCAUGGUCAGAUCCGUCAUCC; expressed or natural sequence)”, in data set [1], the “LGG entry into MC38 cells” value is given as “could prevent the entry of LGG into gut epithelial cells”.

With “mdo-miR7267-3p: GELN-derived miRNA, SEQ ID NO: 129 (CAUCCAGCCAUCCACCCCAGGCCAUC; expressed or natural sequence)”, the “ycnE expression in LGG” value in data set [4] is listed as “indeed inhibited”. Further, in data set [3], the “I3A in LGG cultures” value is given as “induction of I3A” and the “I3AM in LGG cultures” value is on record as “inhibition of I3AM”.

Regarding `O=CCc1c[nH]c2ccccc12` [IAAld, indole-3-acetaldehyde], the “I3AM-mediated inhibitory effect on IL-22 production” value in data set [2] (colon mucus of WT mice gavaged with MRS medium from treated LGG) was “cancelled the I3AM-mediated inhibitory effort on IL-22 production”. In addition, the “inhibitory effect of I3AM on the production of I3A” value in data set [3] (additional IAAld) is listed as “cancelled”.

`O=Cc1c[nH]c2ccccc12` [I3A, indole-3-carboxaldehyde]: the “induction of IL-22 in colon lymphocytes from AHR KO mice” value in data set [5] (AHR KO mice) was “no evidence of an impact”. Further, the “IL-22 in supernatants of colon lymphocytes” value in data set [5] (colon lymphocytes from naïve B6 mice incubated for 3 hours) was “induced expression of IL-22”.

For the origin of these results see US12036262B2, “Edible plant-derived nanoparticles for regulation of gut microbiota” (University of Louisville Research Foundation, Inc., priority 2017, dated 2024).
